Toxic doses and inconclusive results are not listed. The calls were made as follows: active = survival T/C of 150% or more; inactive = T/C below 125% in these data. Peptide text beside a SMILES is read from it. * marks the point of attachment. Boc = CC(C)(C)OC(=O)*; NHNH2 = NN*
System: BDF1 mice, B16 melanoma ip, median survival T/C
Test: NCI In Vivo Anticancer Drug Screen. Data for tumor model B16 Melanoma (intraperitoneal) in B6D2F1 (BDF1) mice
Details: endpoint: median survival time, higher = longer survival
Outline: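 Each result divides a survival or tumor-size measurement in the compound-treated group by the same measurement in the vehicle group.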

[1] = dose: 12.5 mg/kg/injection, schedule: Q01DX009 (ip), vehicle: Klucel (hydroxypropylcellulose) (HPC)
[2] = dose: 25.0 mg/kg/injection, schedule: Q01DX009 (ip), vehicle: Klucel (hydroxypropylcellulose) (HPC)
[3] = dose: 6.25 mg/kg/injection, schedule: Q01DX009 (ip), vehicle: Klucel (hydroxypropylcellulose) (HPC)

Measured: T/C

[Cl][Pt+2][Cl].[NH-]C1CCCC1.[NH-]C1CCCC1
inactive: dose: 2.5 mg/kg/injection, schedule: Q01DX009 (ip), vehicle: Klucel (hydroxypropylcellulose) (HPC) 107 % of control | dose: 5.0 mg/kg/injection, schedule: Q01DX009 (ip), vehicle: Klucel (hydroxypropylcellulose) (HPC) 117 % of control | dose: 10.0 mg/kg/injection, schedule: Q01DX009 (ip), vehicle: Klucel (hydroxypropylcellulose) (HPC) 112 % of control | dose: 10.0 mg/kg/injection, schedule: Q01DX009 (ip), vehicle: olive oil, sesame oil, peanut oil 104 % of control | dose: 10.0 mg/kg/injection, schedule: Q01DX009 (ip), vehicle: saline with Tween-80 109 % of control | dose: 10.0 mg/kg/injection, schedule: Q01DX009 (ip), vehicle: saline 110 % of control | dose: 20.0 mg/kg/injection, schedule: Q01DX009 (ip), vehicle: saline with Tween-80 117 % of control | dose: 20.0 mg/kg/injection, schedule: Q01DX009 (ip), vehicle: saline 124 % of control | dose: 40.0 mg/kg/injection, schedule: Q01DX009 (ip), vehicle: saline with Tween-80 117 % of control | dose: 40.0 mg/kg/injection, schedule: Q04DX003 (ip), vehicle: Klucel (hydroxypropylcellulose) (HPC) 108 % of control | dose: 40.0 mg/kg/injection, schedule: Q04DX003 (ip), vehicle: saline 122 % of control | dose: 80.0 mg/kg/injection, schedule: Q01DX001 (ip), vehicle: Klucel (hydroxypropylcellulose) (HPC) 105 % of control | dose: 80.0 mg/kg/injection, schedule: Q01DX001 (ip), vehicle: saline 117 % of control | dose: 80.0 mg/kg/injection, schedule: Q01DX009 (ip), vehicle: Klucel (hydroxypropylcellulose) (HPC) 115 % of control | dose: 80.0 mg/kg/injection, schedule: Q01DX009 (ip), vehicle: saline with Tween-80 109 % of control | dose: 80.0 mg/kg/injection, schedule: Q04DX003 (ip), vehicle: Klucel (hydroxypropylcellulose) (HPC) 105 % of control | dose: 160.0 mg/kg/injection, schedule: Q01DX001 (ip), vehicle: Klucel (hydroxypropylcellulose) (HPC) 117 % of control | dose: 160.0 mg/kg/injection, schedule: Q01DX009 (ip), vehicle: saline 94 % of control | dose: 160.0 mg/kg/injection, schedule: Q04DX003 (ip), vehicle: Klucel (hydroxypropylcellulose) (HPC) 105 % of control | dose: 320.0 mg/kg/injection, schedule: Q01DX001 (ip), vehicle: Klucel (hydroxypropylcellulose) (HPC) 123 % of control | dose: 320.0 mg/kg/injection, schedule: Q04DX003 (ip), vehicle: Klucel (hydroxypropylcellulose) (HPC) 114 % of control | dose: 640.0 mg/kg/injection, schedule: Q04DX003 (ip), vehicle: saline 105 % of control

CCCCCCCCCC(=O)OCCN1CCN(CCCN2c3ccccc3Sc3ccc(C(F)(F)F)cc32)CC1
inactive: dose: 0.09 mg/kg/injection, schedule: Q01DX009 (ip), vehicle: alcohol 97 % of control | dose: 0.19 mg/kg/injection, schedule: Q01DX009 (ip), vehicle: alcohol 123 % of control | dose: 0.39 mg/kg/injection, schedule: Q01DX009 (ip), vehicle: alcohol 111 % of control

N#CCCNC(Cc1ccc(O)cc1)C(=O)O (stereo not drawn)
inactive: [1] 109 % of control | [2] 100 % of control | dose: 50.0 mg/kg/injection, schedule: Q01DX009 (ip), vehicle: Klucel (hydroxypropylcellulose) (HPC) 88 % of control | dose: 56.25 mg/kg/injection, schedule: Q04DX003 (ip), vehicle: Klucel (hydroxypropylcellulose) (HPC) 95 % of control | dose: 75.0 mg/kg/injection, schedule: Q01DX009 (ip), vehicle: Klucel (hydroxypropylcellulose) (HPC) 116 % of control | dose: 112.5 mg/kg/injection, schedule: Q04DX003 (ip), vehicle: Klucel (hydroxypropylcellulose) (HPC) 105 % of control

CC(C)Oc1ccc2c(c1)N(CCC1CCCCN1)c1ccccc1S2 (stereo not drawn)
inactive: dose: 1.56 mg/kg/injection, schedule: Q01DX009 (ip), vehicle: Klucel (hydroxypropylcellulose) (HPC) 97 % of control | dose: 3.12 mg/kg/injection, schedule: Q01DX009 (ip), vehicle: Klucel (hydroxypropylcellulose) (HPC) 98 % of control | [3] 112 % of control | [1] 91 % of control | [2] 86 % of control

O=C(Nc1ccccc1)N(Cc1ccccc1)c1ccccc1
inactive: dose: 50.0 mg/kg/injection, schedule: Q04DX009 (ip), vehicle: Klucel (hydroxypropylcellulose) (HPC) 104 % of control | dose: 100.0 mg/kg/injection, schedule: Q04DX009 (ip), vehicle: Klucel (hydroxypropylcellulose) (HPC) 104 % of control | dose: 200.0 mg/kg/injection, schedule: Q04DX003 (ip), vehicle: carboxymethylcellulose (CMC) 105 % of control | dose: 200.0 mg/kg/injection, schedule: Q04DX009 (ip), vehicle: Klucel (hydroxypropylcellulose) (HPC) 93 % of control

CCCCC(CCCC)c1ccccn1
inactive: dose: 6.25 mg/kg/injection, schedule: Q01DX009 (ip), vehicle: saline with Tween-80 104 % of control | dose: 12.5 mg/kg/injection, schedule: Q01DX009 (ip), vehicle: saline with Tween-80 108 % of control | dose: 25.0 mg/kg/injection, schedule: Q01DX009 (ip), vehicle: saline with Tween-80 102 % of control

Cc1ccccc1NC(=O)Nc1cccc(C)c1C
inactive: dose: 50.0 mg/kg/injection, schedule: Q04DX003 (ip), vehicle: Klucel (hydroxypropylcellulose) (HPC) 90 % of control | dose: 100.0 mg/kg/injection, schedule: Q04DX003 (ip), vehicle: Klucel (hydroxypropylcellulose) (HPC) 96 % of control | dose: 200.0 mg/kg/injection, schedule: Q04DX003 (ip), vehicle: Klucel (hydroxypropylcellulose) (HPC) 93 % of control

CC1C2CCC3C(O)C2(CC(O)C2(O)C1CC(O)C2(C)C)CC3(C)O (stereo not drawn)
inactive: dose: 0.25 mg/kg/injection, schedule: Q01DX009 (ip), vehicle: Klucel (hydroxypropylcellulose) (HPC) 103 % of control | dose: 0.5 mg/kg/injection, schedule: Q01DX009 (ip), vehicle: Klucel (hydroxypropylcellulose) (HPC) 103 % of control

CC(C)(SCCc1ccc([N+](=O)[O-])cc1)C(N)C(=O)O (stereo not drawn)
inactive: [3] 88 % of control

CC(C)CC(NC(=O)C(Cc1c[nH]c2ccccc12)NC(=O)OC(C)(C)C)C(=O)NN (stereo not drawn) (Boc-Trp-Leu-NHNH2; configuration not given here)
inactive: dose: 25.0 mg/kg/injection, schedule: Q01DX009 (ip), vehicle: saline 88 % of control | dose: 50.0 mg/kg/injection, schedule: Q01DX009 (ip), vehicle: saline 98 % of control | dose: 100.0 mg/kg/injection, schedule: Q01DX009 (ip), vehicle: saline 88 % of control | dose: 200.0 mg/kg/injection, schedule: Q01DX009 (ip), vehicle: saline 87 % of control

— PubChem BioAssay AID192 (DTP/NCI, 2004)
